# Test results published in ChEMBL document CHEMBL5053508, “Optimization of Beclin 1-Targeting Stapled Peptides by Staple Scanning Leads to Enhanced Antiproliferative Potency in Cancer Cells” (J Med Chem, 2021).
# The source made the active and inactive calls. The rule behind the calls is not given here.
# Target: Beclin-1 (Homo sapiens, UniProt Q14457)
# Test: Binding affinity to Beclin 1 coiled coil domain (unknown origin) by isothermal titration calorimetry assay
# Beclin-1, sequence (Q14457 whole entry, the tested form may be a part): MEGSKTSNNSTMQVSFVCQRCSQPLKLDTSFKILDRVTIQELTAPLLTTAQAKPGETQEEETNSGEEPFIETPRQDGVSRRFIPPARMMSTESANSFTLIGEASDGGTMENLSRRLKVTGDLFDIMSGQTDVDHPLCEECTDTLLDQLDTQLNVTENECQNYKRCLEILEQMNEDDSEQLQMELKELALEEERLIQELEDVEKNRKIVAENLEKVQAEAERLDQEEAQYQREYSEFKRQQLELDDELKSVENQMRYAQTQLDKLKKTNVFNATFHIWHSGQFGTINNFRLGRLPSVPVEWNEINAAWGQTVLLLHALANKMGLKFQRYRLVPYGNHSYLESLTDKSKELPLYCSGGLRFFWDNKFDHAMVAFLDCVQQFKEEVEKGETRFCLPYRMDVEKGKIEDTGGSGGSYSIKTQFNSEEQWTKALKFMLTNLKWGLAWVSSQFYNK
Structure (SMILES),Activity,Kd
CC[C@H](C)[C@H](NC(=O)[C@H](CC(C)C)NC(=O)[C@H](CCCNC(=N)N)NC(=O)[C@H](CCCNC(=N)N)NC(=O)[C@H](CCCNC(=N)N)NC(=O)[C@H](CCCNC(=N)N)NC(=O)[C@H](CCC(N)=O)NC(=O)[C@H](CCCNC(=N)N)NC(=O)[C@H](CCCNC(=N)N)NC(=O)[C@H](CCCCN)NC(=O)[C@H](CCCCN)NC(=O)[C@H](CCCNC(=N)N)NC(=O)CNC(=O)[C@H](Cc1ccc(O)cc1)NC(C)=O)C(=O)N[C@@H](CCC(N)=O)C(=O)N[C@@H]1CCCCCC/C=C/CCC[C@@H](C(=O)N[C@@H](CCCNC(=N)N)C(=O)N[C@@H](CCCCN)C(=O)N[C@@H](CCCNC(=N)N)C(N)=O)NC(=O)[C@H](CCCCN)NC(=O)[C@H](CCC(=O)O)NC(=O)[C@H](C(C)C)NC(=O)[C@H](CC(=O)O)NC(=O)[C@H](CCC(=O)O)NC(=O)[C@H](CCCNC(=N)N)NC1=O,inactive,
CC[C@H](C)[C@H](NC(=O)[C@H](CC(C)C)NC(=O)[C@H](C)NC(=O)[C@H](CCCNC(=N)N)NC(=O)[C@H](CCCNC(=N)N)NC(=O)[C@H](CCCNC(=N)N)NC(=O)[C@H](CCC(N)=O)NC(=O)[C@H](CCCNC(=N)N)NC(=O)[C@H](CCCNC(=N)N)NC(=O)[C@H](CCCCN)NC(=O)[C@H](CCCCN)NC(=O)[C@H](CCCNC(=N)N)NC(=O)CNC(=O)[C@H](Cc1ccc(O)cc1)NC(C)=O)C(=O)N[C@@H](CCC(N)=O)C(=O)N[C@@H]1CCCCCC/C=C/CCC[C@@H](C(=O)N[C@@H](CCCNC(=N)N)C(=O)N[C@@H](CCCCN)C(=O)N[C@@H](CCCNC(=N)N)C(N)=O)NC(=O)[C@H](CCCCN)NC(=O)[C@H](CCC(=O)O)NC(=O)[C@H](C(C)C)NC(=O)[C@H](CC(=O)O)NC(=O)[C@H](CCC(=O)O)NC(=O)[C@H](CCC(N)=O)NC1=O,,311 µM
CC[C@H](C)[C@H](NC(=O)[C@H](CC(C)C)NC(=O)[C@H](CCCNC(=N)N)NC(=O)[C@H](CCCNC(=N)N)NC(=O)[C@H](CCCNC(=N)N)NC(=O)[C@H](CCCNC(=N)N)NC(=O)[C@H](CCC(N)=O)NC(=O)[C@H](CCCNC(=N)N)NC(=O)[C@H](CCCNC(=N)N)NC(=O)[C@H](CCCCN)NC(=O)[C@H](CCCCN)NC(=O)[C@H](CCCNC(=N)N)NC(=O)CNC(=O)[C@H](Cc1ccc(O)cc1)NC(C)=O)C(=O)N[C@@H](CO)C(=O)N[C@@H](CCC(=O)O)C(=O)N[C@@H](CC(C)C)C(=O)N[C@@H]1CCCCCC/C=C/CCC[C@@H](C(=O)N[C@@H](C)C(N)=O)NC(=O)[C@H](CCCNC(=N)N)NC(=O)[C@H](CCC(N)=O)NC(=O)[C@H](CCCCN)NC(=O)[C@H](CCC(=O)O)NC(=O)[C@H](CCCNC(=N)N)NC(=O)[C@H](CC(=O)O)NC1=O,,3.21 µM
CC[C@H](C)[C@H](NC(=O)[C@H](Cc1ccccc1)NC(=O)[C@H](CCCNC(=N)N)NC(=O)[C@H](CCCNC(=N)N)NC(=O)[C@H](CCCNC(=N)N)NC(=O)[C@H](CCCNC(=N)N)NC(=O)[C@H](CCC(N)=O)NC(=O)[C@H](CCCNC(=N)N)NC(=O)[C@H](CCCNC(=N)N)NC(=O)[C@H](CCCCN)NC(=O)[C@H](CCCCN)NC(=O)[C@H](CCCNC(=N)N)NC(=O)CNC(=O)[C@H](Cc1ccc(O)cc1)NC(C)=O)C(=O)N[C@@H](CCC(N)=O)C(=O)N[C@@H]1CCCCCC/C=C/CCC[C@@H](C(=O)N[C@@H](CCCNC(=N)N)C(=O)N[C@@H](CO)C(=O)N[C@H](C(N)=O)C(C)C)NC(=O)[C@H](CCCCN)NC(=O)[C@H]([C@@H](C)CC)NC(=O)[C@H](C(C)C)NC(=O)[C@H](C(C)C)NC(=O)[C@H](CCC(=O)O)NC(=O)[C@H](CC(C)C)NC1=O,inactive,
